What all share (experiment): DTP human tumour cell line panel, 48 h
The test system of assay [1] is 786-0 renal.
Assay [2] has as its system EKVX NSCLC.
Assay [3] deals with LOX IMVI melanoma.
Assay [4] relates to OVCAR-5 ovarian.
The test system of assay [5] is RPMI-8226 leukemia.
Assay [6] has as its system SF-295 CNS.
For assay [7], the system named is SK-MEL-2 melanoma.
In assay [8] the test system is SK-MEL-28 melanoma.
Assay [9] deals with SK-MEL-5 melanoma.
Assay [10] relates to SK-OV-3 ovarian.

SMILES strings stand for the structures.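 Exposure lasted 48 hours, with cells grown in 96-well plates and compounds tested at five concentrations. GI50 is the concentration that inhibits growth by half. TGI: concentration producing complete growth inhibition.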

What is called TGI is the concentration at which net growth stops. `Nc1nc2c(ncn2Cc2ccccc2CCO)c(=O)[nH]1`: the TGI in [1], in assay [2], in [3], in assay [4], in [5] and in [6] was above 100 µM in each case. The TGI in assay [7], in assay [8], in [9] and in assay [10] was above 100 µM in each case.
Consider `COc1cc2nncc(Sc3cnnc4ccccc34)c2cc1OC`, for which the concentration for total growth inhibition (TGI) in assay [1] was 96.9 µM; in assay [2], above 100 µM; in assay [3] it was 63.8 µM; in assay [4], 64.6 µM; in [5], 77.7 µM; in assay [6], 91.6 µM. Also, the TGI stood at 36.2 µM in [7], 60.9 µM in [8], 29.5 µM in assay [9] and 76.6 µM in [10].
Take `CC12CC3(C)CC(C)(C1)CC(N=[N+]=[N-])(C2)C3`: the TGI in assay [1], in assay [2], in [3], in assay [4], in assay [5] and in [6] was above 100 µM in each case. Besides, the concentration for total growth inhibition (TGI) in assay [7], in assay [8], in assay [9] and in assay [10] was above 100 µM in each case.
For the compound `Cc1cc2c(C(C)C)c(O)c(O)c(C=Nc3cc(C(F)(F)F)ccc3Cl)c2c(O)c1-c1c(C)cc2c(C(C)C)c(O)c(O)c(C=Nc3cc(C(F)(F)F)ccc3Cl)c2c1O`, the TGI in assay [1] was above 100 µM; in assay [2], above 100 µM; in assay [3], 47.3 µM; in [4], above 100 µM; in [5], above 100 µM; in assay [7], 80.8 µM. For the same compound, the values for the TGI in assay [8], in assay [9] and in assay [10] were above 100 µM, 64.7 µM and 54 µM, respectively.
With `COc1ccc(C2C(Cl)C(=O)N2n2cnc3ccccc3c2=O)cc1OC` (configuration not stated), the TGI in assay [1], in assay [2], in assay [3], in assay [4], in [5] and in assay [6] was above 100 µM in each case. Further, the TGI in [7], in [8], in [9] and in assay [10] was above 100 µM throughout.
Turning to `C=C(C)C1CC2C(C)=C(OC(C)=O)C1n1c(=O)c3cc4ccccc4cc3c(=O)n12` (configuration not stated), the TGI in assay [1] is above 100 µM; in assay [2] it was above 100 µM; in assay [3], above 100 µM; in assay [4] it was above 100 µM; in [5], above 81.3 µM; in [6], above 100 µM. Besides, the TGI in assay [7], in [8], in assay [9] and in assay [10] was above 100 µM throughout.
The GI50 is the concentration giving 50% growth inhibition. Turning to `Cc1cc(N(CCNc2ccnc3cc(Cl)ccc23)Cc2ccc3c(c2)OCO3)nc(N2CCN(C)CC2)n1`, the GI50 in [1] is 1.59 µM; in [2] it was 4.4 µM; in [3] it was 1.79 µM; in [4] it was 5.5 µM; in assay [5], 1.88 µM; in assay [6], 1.72 µM. The GI50 in [7] was 1.98 µM; in assay [8], 1.89 µM; in assay [9] it was 1.79 µM; in assay [10], 9.55 µM. Besides, the TGI in assay [1] was found to be 3.29 µM; in assay [2], 18.9 µM; in assay [3] it was 3.66 µM; in [4], 18.3 µM; in assay [5], 5.23 µM; in assay [6], 3.42 µM. Besides, the TGI in assay [7] was found to be 4.02 µM; in assay [8], 3.53 µM; in assay [9], 3.25 µM; in [10] it was 21.6 µM.
Take `COc1ccc(C2SC(N)=Nc3c2c(C)nn3C(=O)c2ccc(Cl)cc2)cc1OC` (configuration not stated): the TGI in [1], in assay [2], in assay [3], in [4], in [5] and in assay [6] was above 10 µM in each case. Besides, the TGI in assay [7], in assay [8], in assay [9] and in assay [10] was above 10 µM throughout.
Take `Cc1ccc(C(=O)/C(=C/c2ccc([N+](=O)[O-])cc2)S(=O)Cc2ccccc2)cc1` (configuration not stated): the GI50 is 1.44 µM in assay [1]; 1.6 µM in assay [2]; 0.417 µM in [3]; 1.69 µM in assay [4]; 0.404 µM in assay [5]; 2.45 µM in assay [6]. In addition, the GI50 in assay [7] was 1.57 µM; in assay [8], 1.66 µM; in [9] it was 1.6 µM; in assay [10] it was 3.46 µM. Besides, the TGI stood at 2.81 µM in assay [1]; 3.13 µM in [2]; 1.67 µM in [3]; 3.61 µM in assay [4]; 2.35 µM in assay [5]; 5.96 µM in [6]. Besides, the TGI in [7] was 3.26 µM; in [8], 3.15 µM; in assay [9], 2.99 µM; in assay [10], 12.5 µM.
For the compound `CSc1nc2c(c(O)c(C)c(=O)n2C2OC(COC(C)=O)C(OC(C)=O)C(OC(C)=O)C2OC(C)=O)c(=O)n1C` (configuration not stated), the TGI in [1], in [2], in assay [3], in assay [4], in assay [5] and in assay [6] was above 100 µM in each case. For the same compound, the TGI in assay [7], in assay [8], in assay [9] and in assay [10] was above 100 µM throughout.
For `Cc1cc([N+](=O)[O-])c(C)c2c1[nH]c1ccc(/C(CCC3CCCC3)=N\N)cc12`, the TGI in [1] turned out to be 28 µM; in [2] it was 32 µM; in assay [3] it was 29.6 µM; in assay [5] it was 62.2 µM; in assay [6], 38.1 µM; in assay [7] it was 30.2 µM. Moreover, the TGI stood at 34 µM in [8] and 37.7 µM in assay [9].

The record behind these values is PubChem BioAssay (NCI).
